Measured values reported in patent publication US12138256B2, “Treatment of cardiopulmonary disorders” (Bayer Aktiengesellschaft, priority 2021, dated 2024).
Like-named read-outs stand apart in the source and are kept apart here. Each block holds one compound with its values, some of them ahead of it.

Assays:
[1] = Caco-2 permeability test (C-5.1); assay type: in vitro ADME, human; details: human; for efflux ratio at 2 h, 2 μM / Papp A→B at 2 h, 2 μM / Papp B→A at 2 h, 2 μM: Caco-2 (2 μM); for Papp A→B at 2 h, 2 μM / Papp B→A at 2 h, 2 μM: concentration per compound 2.0 or 2.4 μM; for Papp A→B at 2 h, 2 μM: read-out: Papp A-B (mean +/− SD); for Papp B→A at 2 h, 2 μM: read-out: Papp B-A (mean +/− SD)
Method: The in vitro permeation of a test compound across a Caco-2 cell monolayer is a well-established assay system to predict the permeability from the gastro-intestinal tract (1). The permeability of the compounds of the present invention in such Caco-2 cells was determined as described below:
Human caco-2 cells were seeded on 24-well insert plates and were allowed to grow for 14-16 days. For permeability studies, the test compounds were dissolved in DMSO and diluted to the final test concentration of 2 μM with transport buffer [Hanks' Buffered Salt Solution, Gibco/Invitrogen, further supplemented with glucose and HEPES]. For determination of the apical to basolateral permeability (PappA-B), the test compound solution was added to the apical side of the cell monolayer and transport buffer to the basolateral side of the monolayer; for determination of the basolateral to apical permeability (PappB-A), the test compound solution was added to the basolateral side of the cell monolayer and transport buffer to the apical side of the monolayer. Samples were taken from the donor compartment at the beginning of the experiment to confirm mass balance. After an incubation of 2 h at 37° C., samples were taken from both compartments. Samples were analyzed by LC-MS/MS, and the apparent permeability coefficients were calculated. Lucifer Yellow permeability was assayed for each cell monolayer to ensure cell monolayer integrity, and the permeability of Atenolol (low permeability marker) and Sulfasalazine (marker for active excretion) was determined for each batch as quality control.

[2] = Protein binding via Transil assay, plasma of all species investigated (C-5.2); assay type: in vitro ADME; details: Wistar (rat), Beagle (dog), plasma (Transil beads), read-out: free fractions
From the text: (§1) The distribution of a test substance between Transil® (phosphatidylcholine lipid bilayers immobilized on silica beads) and plasma is a characteristic feature of any pharmaceutical compound and is dependent on its extent of binding to plasma proteins. By comparing the distribution between Transil® and buffer with the distribution between Transil® and plasma of any species of interest, the unbound fraction in the plasma of the respective animal species can be calculated in vitro. The respective plasma and buffer concentrations were determined via a radioactivity analysis. A detailed description of the method and its validation was published by Schuhmacher et al. (2).

[3] = Protein binding via Transil assay, human plasma; assay type: in vitro ADME
From the text: as §1

[4] = system: rabbit saphenous artery; test: Vasorelaxant effect in vitro: phenylephrine-induced contraction of rabbit saphenous artery rings (C-1.1); details: for IC50: Oryctolagus cuniculus, read-out: IC50, inhibition of phenylephrine induced contractions of rabbit saphenous artery rings; for % contraction (PE-induced contraction of rabbit saphenous artery): mean +/− SEM
Method: Rabbits were anaesthetized and sacrificed by intravenous injection of thiopental sodium (about 50 mg/kg) and exsanguinated. The saphenous artery was removed and divided into rings 3 mm wide. The rings were mounted singly on in each case a pair of triangular hooks open at the end and made of 0.3 mm-thick special wire (Remanium®). Each ring was placed under an initial tension in 5 ml organ baths with Krebs-Henseleit solution which was at 37° C., was gassed with carbogen and had the following composition: NaCl 119 mM; KCl 4.8 mM; CaCl2)×2 H2O 1 mM; MgSO4×7 H2O 1.4 mM; KH2PO41.2 mM; NaHCO325 mM; glucose 10 mM; bovine serum albumin 0.001%. The force of contraction was detected with Statham UC2 cells, amplified and digitized via A/D converters (DAS-1802 HC, Keithley Instruments, Munich) and recorded in parallel on chart recorders. Contractions were induced by addition of phenylephrine.
The concentration necessary to reduce the contraction reached in the preceding control by 50% was calculated from this (IC50). The standard application volume was 5 μl. The proportion of DMSO in the bath solution corresponded to 0.1%.

[5] = Protein binding via Transil assay, monkey plasma; assay type: in vitro ADME; details: Monkey Cynomolgus plasma
From the text: as §1

[6] = Protein binding via Transil assay, dog plasma; assay type: in vitro ADME; details: Dog Beagle plasma, Transil assay
From the text: as §1

[7] = Storage stability of pseudopolymorphic forms (XRPD after storage); assay type: physicochemical; details: 25° C./60% and 40° C./75% relative humidity
[8] = Stability of the crystalline form during micronization (spiral jet mill, XRPD); assay type: physicochemical
From the text: Generally no amorphization even partial nor form conversion should happen during the necessary micronization step.
The corresponding batches (examples 8a-8d) were micronized using a 50 mm spiral jet mill and pressurized nitrogen with the following parameters (see table 16b).
The corresponding batches were micronized using a 100 mm spiral jet mill and pressurized nitrogen with the following parameters (see table 16c).

[9] = Human (male) plasma, Transil assay, read-out: Fraction unbound

efflux ratio at 2 h, 2 μM [1]: 20 ± 3.5
Papp A→B at 2 h, 2 μM [1]: 3.1 ± 0.39 ×10⁻⁶ cm/s
Papp B→A at 2 h, 2 μM [1]: 63.1 ± 7.1 ×10⁻⁶ cm/s
fraction unbound [2]: < 0.01
fraction unbound [3, 9]: 0.00392
IC50 ([4]; 0.5 h, 30 min after incubation): 17 nM
IC50 ([4]; preincubation period of 2.5 h): 3 nM
fraction unbound [5]: 0.000799
fraction unbound [6]: 0.0112
SMILES: O=C(O)CCCCN(CCc1ccccc1OCc1ccc(CCc2ccccc2)cc1)Cc1ccc(C(=O)O)cc1 [comparative example 1, 4-[((4Carboxybutyl)-{2-[(4-phenethylbenzyl)oxy]phenethyl}amino)methyl]benzoic acid]

SMILES: O=C(O)c1ccc(CCN(CCc2ccccc2OCc2ccc(-c3ccc(C(F)(F)F)cc3)cc2Cl)[C@H]2CCCc3nc(C(=O)O)ccc32)cc1 [example 2, (5S)-{[2-(4-Carboxyphenyl)ethyl][2-(2-{[3-chloro-4′-(trifluoromethyl)biphenyl-4-yl]methoxy}phenyl)-ethyl]amino}-5,6,7,8-tetrahydroquinoline-2-carboxylic acid]
storage stability of the form ([7]; listed as monohydrate II): underwent conversion to monohydrate I
stability of the form under micronization [8]: monohydrate II with partial amorphization
stability of the form under micronization ([8]; listed as monohydrate II): partial amorphization occurred under several conditions

SMILES: O=C(O)c1ccc(CCN(CCc2ccccc2OCc2ccc(-c3ccc(C(F)(F)F)cc3)cc2Cl)[C@H]2CCCc3nc(C(=O)O)ccc32)cc1 [example 4, (5S)-{[2-(4-Carboxyphenyl)ethyl][2-(2-{[3-chloro-4′-(trifluoromethyl)biphenyl-4-yl]methoxy}phenyl)-ethyl]amino}-5,6,7,8-tetrahydroquinoline-2-carboxylic acid]
storage stability of the form ([7]; listed as monohydrate I): stable
stability of the form under micronization ([8]; listed as monohydrate I): stable under micronization conditions

SMILES: O=C(O)c1ccc(CCN(CCc2ccccc2OCc2ccc(-c3ccc(C(F)(F)F)cc3)cc2Cl)[C@H]2CCCc3nc(C(=O)O)ccc32)cc1 [comparative example 11, (5S)-5-{[2-(4-carboxyphenyl)ethyl][2-(2-{[3-chloro-4′-(trifluoromethyl)[biphenyl]-4-yl]methoxy}phenyl)ethyl]amino}-5,6,7,8-tetrahydroquinoline-2-carboxylic acid]
Papp at 2 h, 2 μM ([1]; Caco-2, 2 μM, 2 h at 37° C.): 1.51 ×10⁻⁶ cm/s
efflux ratio at 2 h, 2 μM [1]: 0.64 ± 0.1
Papp A→B at 2 h, 2 μM [1]: 1.51 ± 0.17 ×10⁻⁶ cm/s
Papp B→A at 2 h, 2 μM [1]: 0.97 ± 0.06 ×10⁻⁶ cm/s
fraction unbound [2]: < 0.01
fraction unbound [3, 9]: 0.000764
fraction unbound ([3]; plasma (Transil beads), human plasma, read-out: plasma fu (fraction unbound)): 0.000764
% contraction (PE-induced contraction of rabbit saphenous artery) ([4]; 10^−5 M/L, incubation time 0.5 h): 19 ± 3.0%
% contraction (PE-induced contraction of rabbit saphenous artery) ([4]; 10^−6 M/L, incubation time 0.5 h): 59 ± 4.9%
% contraction (PE-induced contraction of rabbit saphenous artery) ([4]; 10^−7 M/L, incubation time 0.5 h): 80 ± 4.6%
% contraction (PE-induced contraction of rabbit saphenous artery) ([4]; 10^−8 M/L, incubation time 0.5 h): 92 ± 3.0%
% contraction (PE-induced contraction of rabbit saphenous artery) ([4]; 10^−8 M/L, incubation time 2.5 h): 29 ± 9.3%
% contraction (PE-induced contraction of rabbit saphenous artery) ([4]; 10^−9 M/L, incubation time 0.5 h): 103 ± 3.5%
% contraction (PE-induced contraction of rabbit saphenous artery) ([4]; 10^−9 M/L, incubation time 2.5 h): 47 ± 6.2%
% contraction (PE-induced contraction of rabbit saphenous artery) ([4]; 10^−10 M/L, incubation time 0.5 h): 99 ± 3.4%
% contraction (PE-induced contraction of rabbit saphenous artery) ([4]; 10^−10 M/L, incubation time 2.5 h): 67 ± 5.7%
% contraction (PE-induced contraction of rabbit saphenous artery) ([4]; 10^−11 M/L, incubation time 0.5 h): 100 ± 1.5%
% contraction (PE-induced contraction of rabbit saphenous artery) ([4]; 10^−11 M/L, incubation time 2.5 h): 91 ± 2.0%
% contraction (PE-induced contraction of rabbit saphenous artery) ([4]; 10^−12 M/L, incubation time 2.5 h): 98 ± 0%
IC50 ([4]; 0.5 h, 30 min after incubation): 911 nM
IC50 ([4]; preincubation period of 2.5 h): 0.8 nM
fraction unbound [5]: 0.000485
fraction unbound [6]: 0.00108
